The values that follow come from US12186401B2, “Amide-based proteolysis modulators of B-rapidly accelerated fibrosarcoma (BRAF) and associated uses” (Ontario Institute for Cancer Research (OICR), priority 2019, dated 2025).

One assay has as its target B-Raf (V600E) (h) (Homo sapiens, UniProt P15056, V600E). The assay can be described thus: Kinase inhibition assay B-Raf (V600E) (h), radiometric 33P-ATP filter assay. The following applies: read-out: IC50(nM) BRAF^V600E. The assay is classed as biochemical. As for the experimental part: (§1) b-Raf (V599E) (h) was incubated with 25 mM Tris/HCl pH 7.5, 0.2 mM EGTA, 10 mM DTT, 0.01% Triton X-100, 0.5 mM, sodium orthovandate, 0.5 mM […], 1% glycerol, 34 nM unactive MEK1, 69 nM unactive MAPK2, 0.5 mg/mL myelin basic protein, and 10 mM Magnesium acetate and […] (specific activity and concentration as required). The reaction was initiated by the addition of the Mg/ATP mix. After incubation for 40 minutes at room temperature, the reaction was stopped by the addition of phosphoric acid to a concentration of 0.5%. 10 μL of the reaction was then spotted onto a P30 filtermat and washed four times for 4 minutes in 0.425% phosphoric acid and once in methanol prior to drying and scintillation counting. Similar protocols were used for other kinase assays employing the kinase of interest to generate the data in Table 1.

The next assay deals with CRAF (Homo sapiens, UniProt P04049). The assay can be described thus: Kinase inhibition assay CRAF (similar protocol). The assay is classed as biochemical. As for the experimental part: as §1
A further assay deals with T1, ARAF (Homo sapiens, UniProt P10398).
T1 sequence (P10398 1-606): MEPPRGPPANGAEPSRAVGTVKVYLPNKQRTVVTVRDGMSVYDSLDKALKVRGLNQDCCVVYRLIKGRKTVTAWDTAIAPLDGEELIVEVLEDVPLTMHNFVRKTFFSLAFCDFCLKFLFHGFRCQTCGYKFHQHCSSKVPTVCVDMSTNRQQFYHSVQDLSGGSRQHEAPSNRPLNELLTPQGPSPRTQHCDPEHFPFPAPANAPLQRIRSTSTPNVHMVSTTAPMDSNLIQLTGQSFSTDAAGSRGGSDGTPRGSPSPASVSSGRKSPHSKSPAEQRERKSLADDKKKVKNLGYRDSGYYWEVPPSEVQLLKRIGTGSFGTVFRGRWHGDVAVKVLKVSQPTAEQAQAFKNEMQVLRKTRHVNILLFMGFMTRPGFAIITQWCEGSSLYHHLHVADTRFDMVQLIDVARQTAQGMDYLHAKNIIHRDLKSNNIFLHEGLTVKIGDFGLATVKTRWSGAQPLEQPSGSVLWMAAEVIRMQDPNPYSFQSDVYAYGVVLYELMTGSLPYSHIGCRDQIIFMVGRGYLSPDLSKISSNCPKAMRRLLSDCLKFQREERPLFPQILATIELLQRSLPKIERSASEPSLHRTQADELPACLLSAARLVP
Description: Kinase inhibition assay ARAF (similar protocol). Type of assay: biochemical. As for the experimental part: as §1

The next assay deals with T2, BRAF^V600E (Homo sapiens, UniProt P15056, V600E).
T2 construct: A375 or SK-Mel-28 cells were obtained from ATCC; host or cells: A375 or SK-Mel-28
Description: Cellular degradation assay, Western blot of BRAF^V600E. The assay is classed as cell-based. The following applies: for degradation of BRAF^V600E by immunoblot (FIGS. 4 and 5): A375 human melanoma cells, 24 hrs; for DCmax(%) BRAF^V600E / DC50: Table 1, cells treated 24 hours, Western blot; for DC50: read-out: DC50(nM) BRAF^V600E. As for the experimental part:
Cell culture and compound treatment: A375 or SK-Mel-28 cells were obtained from ATCC and cultured in Dulbecco's Modified Eagle Media (DMEM) supplemented with 10% FBS, penicillin and streptomycin, at 37° C., 5% CO2. Cells grown in 6-well plates were treated for 24 hours with test compounds (solubilized in DMSO) or 0.1% DMSO vehicle control. Cells were harvested by first washing with 1× phosphate-buffered saline (PBS), then scrapping into 1 ml of PBS supplemented with 1 mM phenylmethylsulfonylflouride (PMSF). Cell pellets were obtained after a centrifugation at 300-350×g for 2 min, and immediately snap frozen in liquid nitrogen.
Cell lysis and Western blot analysis: Cell pellets were thawed and lysed by pipetting in lysis buffer (50 mM HEPES (pH 7.4), 150 mM NaCl, 5 mM EDTA, 0.5% NP-40, 5 mM NaF, 10% glycerol), with Roche protease inhibitor cocktail (5056489001) and phosphatase inhibitor cocktail PhosStop (4906845001) added fresh before use. The whole cell lysate was clarified by centrifugation at 15,000-20,000×g for 20 min and supernatant was collected. Total protein concentration in the clarified lysate was determination by Bradford assay (Bio-Rad), and 30-50 ug of protein was separated through SDS-PAGE, transferred onto nitrocellulose membrane and subject to standard immunoblotting protocol. Band intensities were quantified by Bio-Rad Image Lab software. Antibodies to B-Raf (sc-5284), A-Raf (sc-166771), phosphor MEK1/2, pS218/222 (sc-7995), phosphor ERK1/2 (sc-7383) were purchased from Santa Cruz; C-Raf (9422), MEK1/2 (9122), ERK1/2 (9102) from Cell Signaling; p27 (610242) from BD Biosciences. Antibody to the loading control α-tubulin was obtained from Sigma-Aldrich (6199).

Chain of CRAF (P04049 whole entry): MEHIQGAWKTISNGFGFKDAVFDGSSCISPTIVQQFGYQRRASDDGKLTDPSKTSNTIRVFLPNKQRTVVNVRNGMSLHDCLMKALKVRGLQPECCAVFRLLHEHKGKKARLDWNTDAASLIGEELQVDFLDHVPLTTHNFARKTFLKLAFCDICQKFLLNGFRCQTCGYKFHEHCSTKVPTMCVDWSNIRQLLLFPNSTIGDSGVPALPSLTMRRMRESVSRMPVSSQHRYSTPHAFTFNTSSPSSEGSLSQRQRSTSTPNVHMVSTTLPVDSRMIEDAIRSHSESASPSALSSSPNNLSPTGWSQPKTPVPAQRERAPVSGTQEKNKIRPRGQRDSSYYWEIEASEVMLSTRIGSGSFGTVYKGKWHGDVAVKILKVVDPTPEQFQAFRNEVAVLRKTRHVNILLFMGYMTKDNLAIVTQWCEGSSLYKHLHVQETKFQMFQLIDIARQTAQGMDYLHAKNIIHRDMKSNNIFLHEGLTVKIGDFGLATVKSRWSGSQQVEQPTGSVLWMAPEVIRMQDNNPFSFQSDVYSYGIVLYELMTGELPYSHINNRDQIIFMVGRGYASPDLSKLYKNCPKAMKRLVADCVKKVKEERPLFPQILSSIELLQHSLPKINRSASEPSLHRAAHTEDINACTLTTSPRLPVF
T2 sequence (P15056 whole entry V600E): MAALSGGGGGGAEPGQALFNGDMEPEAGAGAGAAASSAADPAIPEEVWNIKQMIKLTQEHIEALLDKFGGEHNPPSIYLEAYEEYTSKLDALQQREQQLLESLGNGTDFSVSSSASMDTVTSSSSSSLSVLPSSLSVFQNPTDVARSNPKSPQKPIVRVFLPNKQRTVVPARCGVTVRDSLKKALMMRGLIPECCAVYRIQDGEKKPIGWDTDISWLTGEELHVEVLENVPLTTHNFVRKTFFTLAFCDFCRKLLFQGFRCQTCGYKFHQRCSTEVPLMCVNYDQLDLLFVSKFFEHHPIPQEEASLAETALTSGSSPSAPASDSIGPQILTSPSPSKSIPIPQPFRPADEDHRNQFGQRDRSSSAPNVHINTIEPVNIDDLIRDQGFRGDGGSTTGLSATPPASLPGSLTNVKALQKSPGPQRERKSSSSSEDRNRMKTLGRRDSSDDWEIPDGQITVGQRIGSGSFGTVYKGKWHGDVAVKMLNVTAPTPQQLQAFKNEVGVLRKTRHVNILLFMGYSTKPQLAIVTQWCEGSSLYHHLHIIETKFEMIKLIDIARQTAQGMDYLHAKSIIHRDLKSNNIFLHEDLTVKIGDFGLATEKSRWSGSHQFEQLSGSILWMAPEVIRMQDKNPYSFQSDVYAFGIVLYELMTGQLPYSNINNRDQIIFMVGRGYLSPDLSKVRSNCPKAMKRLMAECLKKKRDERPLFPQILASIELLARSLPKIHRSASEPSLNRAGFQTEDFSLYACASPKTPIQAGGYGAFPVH
Chain of B-Raf (V600E) (h) (P15056 whole entry V600E): as above

For the compound `CCCS(=O)(=O)Nc1ccc(F)c(-n2cc(-c3cncnc3)c3nc(N(C)C4CCN(C(=O)CCOCCOCCOCCNc5cccc6c5C(=O)N(C5CCC(=O)NC5=O)C6=O)CC4)ccc32)c1F` (stereo not shown) [Entry 2], the IC50 on B-Raf (V600E) (h) is 47 nM; on CRAF, 22 nM; against ARAF, above 10000 nM. Besides, the “degradation of BRAF^V600E by immunoblot (FIGS. 4 and 5)” value (“degradation … (FIGS. 4 and 5)” for short) on BRAF^V600E (listed as Pmd-PEG3-Dabrafenib#1) is recorded as “No degradation”. The “DCmax(%) BRAF^V600E” value at BRAF^V600E is reported as 0%.

For `CCCS(=O)(=O)Nc1ccc(F)c(-n2cc(-c3cncnc3)c3nc(N(C)C4CCN(CC)CC4)ccc32)c1F` [Entry 15, N-[3-[5-[(1-ethylpiperidin-4-yl)-methylamino]-3-pyrimidin-5-ylpyrrolo[3,2-b]pyridine-1-yl]-2,4-difluorophenyl]propane-1-sulfonamide, reference compound], the IC50 at B-Raf (V600E) (h) was found to be 31 nM; against CRAF, 64 nM; on ARAF it was 323 nM. Moreover, at BRAF^V600E, the “DCmax(%) BRAF^V600E” value worked out at 0%.

In the case of `CCCS(=O)(=O)Nc1ccc(F)c(-n2cc(-c3cncnc3)c3nc(N(C)C4CCN(C(=O)CCOCCOCCOCCNc5cccc6c5C(=O)N(C5CCC(=O)NC5=O)C6=O)CC4)ccc32)c1F` (stereo not shown) [Entry 16, N-(3-(5-((1-(3-(2-(2-(2-((2-(2,6-dioxopiperidin-3-yl)-1,3-dioxoisoindolin-4-yl)amino)ethoxy)ethoxy)ethoxy)propanoyl)piperidin-4-yl)(methyl)amino)-3-(pyrimidin-5-yl)-1H-pyrrolo[3,2-b]pyridin-1-yl)-2,4-difluorophenyl)propane-1-sulfonamide], the IC50 at B-Raf (V600E) (h) worked out at 65 nM. This compound also had an IC50 against CRAF of 532 nM. The compound also showed an IC50 at ARAF above 10000 nM. At BRAF^V600E, the “degradation … (FIGS. 4 and 5)” value is “Degradation of BRAF^V600E was observed”; the “DCmax(%) BRAF^V600E” value is reported as 60%; the DC50 turned out to be 10 nM.

With `CCCS(=O)(=O)Nc1ccc(F)c(-n2cc(-c3cncnc3)c3nc(N(C)C4CCN(C(=O)CCOCCOCCOCCOCCOCCOCCNc5cccc6c5C(=O)N(C5CCC(=O)NC5=O)C6=O)CC4)ccc32)c1F` (stereo not shown) [Entry 19, N-(3-(5-((1-(1-((2-(2,6-dioxopiperidin-3-yl)-1,3-dioxoisoindolin-4-yl)amino)-3,6,9,12,15,18-hexaoxaheneicosan-21-oyl)piperidin-4-yl)(methyl)amino)-3-(pyrimidin-5-yl)-1H-pyrrolo[3,2-b]pyridin-1-yl)-2,4-difluorophenyl)propane-1-sulfonamide], the IC50 on B-Raf (V600E) (h) came out at 83 nM. This compound returned an IC50 on CRAF of 542 nM. At ARAF, the half-inhibitory concentration (IC50) amounted to 6550 nM. For the same compound, at BRAF^V600E, the “degradation … (FIGS. 4 and 5)” value is “Degradation of BRAF^V600E was observed”; the “DCmax(%) BRAF^V600E” value was 60%; the 50% degradation concentration (DC50) is 100 nM.

As for `CCCS(=O)(=O)Nc1ccc(F)c(-n2cc(-c3cncnc3)c3nc(N(C)C4CCN(C(=O)CCOCCOCCOCCOCCOCCOCCOCCOCCNc5cccc6c5C(=O)N(C5CCC(=O)NC5=O)C6=O)CC4)ccc32)c1F` (stereo not shown) [Entry 20, N-(3-(5-((1-(1-((2-(2,6-dioxopiperidin-3-yl)-1,3-dioxoisoindolin-4-yl)amino)-3,6,9,12,15,18,21,24-octaoxaheptacosan-27-oyl)piperidin-4-yl)(methyl)amino)-3-(pyrimidin-5-yl)-1H-pyrrolo[3,2-b]pyridin-1-yl)-2,4-difluorophenyl)propane-1-sulfonamide], the IC50 at B-Raf (V600E) (h) was 85 nM. At CRAF, this compound registered an IC50 of 592 nM. Also, at ARAF, the IC50 worked out at 4910 nM. Besides, at BRAF^V600E, the “degradation … (FIGS. 4 and 5)” value was “Degradation of BRAF^V600E was observed”; the “DCmax(%) BRAF^V600E” value came to 40%; the 50% degradation concentration (DC50) is 75 nM.

On to `CC(C)(C)c1nc(-c2cccc(NS(=O)(=O)c3c(F)cccc3F)c2F)c(-c2ccnc(N)n2)s1` [dabrafenib, reference compound], for which the “degradation of BRAF^V600E by immunoblot (FIG. 3A)” value on BRAF^V600E (dabrafenib 20 nM, PROTAC inhibitors 50 nM) is “no degradation”.
